Eight molecules from ChEMBL document CHEMBL1201862, “PubChem BioAssay data set” (2004) can be followed below.

The source made the active and inactive calls. Bounds are passed on as bounds.

The target in assay [1] is T1, Neuropeptide Y receptor type 2 (Homo sapiens, UniProt P49146).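 Note: HEK293 cells expressing the receptor and a CNG channel; stimulus was NPY near EC95 followed by isoproterenol to raise cAMP; antagonist potency measured as restoring cAMP signal that NPY suppresses.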
T1 sequence (P49146 whole entry): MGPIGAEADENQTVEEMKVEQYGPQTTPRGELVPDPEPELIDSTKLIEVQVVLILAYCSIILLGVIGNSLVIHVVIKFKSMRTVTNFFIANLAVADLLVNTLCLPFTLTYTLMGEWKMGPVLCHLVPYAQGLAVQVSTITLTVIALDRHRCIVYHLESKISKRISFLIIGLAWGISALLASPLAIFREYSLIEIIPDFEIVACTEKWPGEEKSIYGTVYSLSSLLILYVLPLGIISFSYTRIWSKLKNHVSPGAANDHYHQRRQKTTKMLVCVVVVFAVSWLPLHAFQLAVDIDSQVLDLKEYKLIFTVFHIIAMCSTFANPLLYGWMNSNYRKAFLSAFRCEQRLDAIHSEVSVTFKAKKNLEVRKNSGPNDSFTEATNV
The format is functional, cell-based.

Assay [2] deals with T2, Calpain-2 catalytic subunit (Sus scrofa, UniProt P43367).
T2 sequence (P43367 whole entry): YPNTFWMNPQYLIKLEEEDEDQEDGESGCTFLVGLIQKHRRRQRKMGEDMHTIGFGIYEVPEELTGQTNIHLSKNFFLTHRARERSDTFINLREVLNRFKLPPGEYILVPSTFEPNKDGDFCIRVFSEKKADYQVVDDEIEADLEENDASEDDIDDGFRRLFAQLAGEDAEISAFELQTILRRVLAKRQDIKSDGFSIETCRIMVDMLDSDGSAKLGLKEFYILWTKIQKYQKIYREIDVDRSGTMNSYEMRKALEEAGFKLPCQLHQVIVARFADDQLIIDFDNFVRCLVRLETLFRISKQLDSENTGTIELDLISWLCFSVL
The experiment in a line: m-calpain protease blockers, concentration series – biochemical, fluorogenic peptide substrate, dose response (AID 1420). In kind it is functional.

A short description of assay [3]: Trypanosoma cruzi growth suppression in host cells – NIH3T3 host cells, beta-gal luminescence, confirmation (AID 2044).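 Note: intracellular parasites grown in NIH/3T3 mouse fibroblasts as host cells; luminescent beta-galactosidase reporter signal from transgenic T. cruzi replicating inside host cells; inhibitors lower the luminescence signal.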 In kind it is functional, cell-based.
The target of assay [4] is T3, Neuropeptide Y receptor type 1 (Homo sapiens, UniProt P25929).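 Note: HEK293 cells with a CNG channel challenged with NPY then isoproterenol; potency as antagonist that reverses NPY suppression of cAMP signal.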
T3 sequence (P25929 whole entry): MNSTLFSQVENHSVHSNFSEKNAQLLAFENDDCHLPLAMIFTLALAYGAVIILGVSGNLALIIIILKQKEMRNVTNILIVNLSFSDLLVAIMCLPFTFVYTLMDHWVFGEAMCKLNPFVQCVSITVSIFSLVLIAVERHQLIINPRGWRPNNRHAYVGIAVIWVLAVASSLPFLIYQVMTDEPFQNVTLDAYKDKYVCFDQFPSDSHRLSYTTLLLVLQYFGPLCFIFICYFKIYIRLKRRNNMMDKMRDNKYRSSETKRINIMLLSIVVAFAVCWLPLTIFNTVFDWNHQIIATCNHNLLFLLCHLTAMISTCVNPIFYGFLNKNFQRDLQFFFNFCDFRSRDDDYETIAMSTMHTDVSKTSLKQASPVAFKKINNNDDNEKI
In kind it is functional.

A short description of assay [5]: NIH3T3 cell viability loss – ATP luminescence, mouse fibroblasts, counter-screen, dose response (AID 2010).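 Note: cells exposed to compound for about 90 hours before reading.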 The format is functional, cell-based.
Another assay concerns HT-1080. The experiment in a line: HT1080 cell viability loss – fluorescence readout (AID 620). In kind it is functional, cell-based. The settings on record: Homo sapiens.
Assay [6] is described as follows: luciferase reporter signal suppression in cells – H4 neuroglioma cells, luminescence, dose response (AID 1990). In kind it is functional, cell-based.
The nature of assay [7]: alpha-synuclein stem-loop luciferase translation blockers – H4 neuroglioma cells, luminescence, confirmation (AID 1988). The format is functional, cell-based.
For assay [8], the target named is Luciferin 4-monooxygenase (Photinus pyralis, UniProt P08659). The experiment in a line: Counter Screen for Luciferase-based Assay Positives. [Related pubchem assays: 620, 618, 411 ].
Sequence of Luciferin 4-monooxygenase (P08659 whole entry): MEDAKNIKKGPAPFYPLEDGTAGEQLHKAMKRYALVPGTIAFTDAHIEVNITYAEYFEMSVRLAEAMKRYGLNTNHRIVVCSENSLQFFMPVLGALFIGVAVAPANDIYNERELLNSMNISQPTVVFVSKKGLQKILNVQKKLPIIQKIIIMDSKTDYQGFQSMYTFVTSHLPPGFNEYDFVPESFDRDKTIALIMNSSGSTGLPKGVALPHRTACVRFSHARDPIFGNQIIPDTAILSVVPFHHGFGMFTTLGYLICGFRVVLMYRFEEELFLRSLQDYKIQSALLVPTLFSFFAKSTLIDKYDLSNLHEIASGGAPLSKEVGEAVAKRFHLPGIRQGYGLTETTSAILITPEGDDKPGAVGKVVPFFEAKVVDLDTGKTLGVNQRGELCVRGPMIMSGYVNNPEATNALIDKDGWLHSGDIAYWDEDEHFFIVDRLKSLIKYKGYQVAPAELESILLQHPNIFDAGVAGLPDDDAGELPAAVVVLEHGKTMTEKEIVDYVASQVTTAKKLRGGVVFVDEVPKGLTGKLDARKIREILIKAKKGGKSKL
Assay [9] deals with T4, Microphthalmia-associated transcription factor (Homo sapiens, UniProt O75030).
T4 sequence (O75030 whole entry): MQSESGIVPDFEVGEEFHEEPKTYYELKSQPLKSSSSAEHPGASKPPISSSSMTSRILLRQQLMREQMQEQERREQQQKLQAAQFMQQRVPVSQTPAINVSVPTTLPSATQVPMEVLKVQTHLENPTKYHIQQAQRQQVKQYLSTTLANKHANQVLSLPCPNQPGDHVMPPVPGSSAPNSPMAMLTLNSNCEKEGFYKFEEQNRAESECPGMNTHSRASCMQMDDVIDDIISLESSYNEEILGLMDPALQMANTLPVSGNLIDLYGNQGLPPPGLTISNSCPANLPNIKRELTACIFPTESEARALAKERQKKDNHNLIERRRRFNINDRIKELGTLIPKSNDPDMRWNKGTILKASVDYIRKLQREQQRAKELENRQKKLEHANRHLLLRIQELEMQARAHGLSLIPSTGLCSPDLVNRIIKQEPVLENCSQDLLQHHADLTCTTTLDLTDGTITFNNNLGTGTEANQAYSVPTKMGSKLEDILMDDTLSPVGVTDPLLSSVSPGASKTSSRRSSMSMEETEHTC
Briefly: reducers of TRPM1 reporter luminescence, concentration series – cell-based, SK-MEL-5, cherry-picked, set 3, MITF inhibitor project, dose response (AID 493073).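 Note: SK-MEL-5 melanoma cells with luciferase driven by the MITF target TRPM1 promoter.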 In kind it is functional.

Assay [10] can be described thus: Luminescence Cell-Based Dose Response HTS to Identify Inhibitors of 5'UTR Stem-Loop Driven Prion Protein mRNA Translation in H4 Neuroglioblastoma Cells. [Related pubchem assays: 1827 (Project Summary), 1813 (Primary HTS)]. The format is functional.
Assay [11] concerns the target Epstein-Barr nuclear antigen 1 (Epstein-Barr virus (strain B95-8) (HHV-4) (Human herpesvirus 4), UniProt P03211). The experiment in a line: inhibition of EBV nuclear antigen 1 DNA binding – biochemical, fluorescence polarization, 1536-well, dose response (AID 2381).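 Note: fluorescence polarization of a Cy5 DNA probe bound by EBNA-1 protein.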 Details: species or system human gammaherpesvirus 4.
Assay [12] has as its target Lytic switch protein BZLF1 (Epstein-Barr virus (strain B95-8) (HHV-4) (Human herpesvirus 4), UniProt P03206). The experiment in a line: inhibition of BZLF1 ZTA DNA binding – biochemical, fluorescence polarization, Epstein-Barr virus, 1536-well, counter-screen for EBNA-1 inhibitor project, dose response (AID 2377).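 Note: fluorescence polarization of Cy5-labelled ZRE DNA probe bound by purified Zta.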 Details: species or system human gammaherpesvirus 4.
The target in another assay is Cytochrome P450 3A4 (Homo sapiens, UniProt P08684).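 Note: CYP3A4 tested as one member of a cytochrome P450 panel screen.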
Sequence of Cytochrome P450 3A4 (P08684 whole entry): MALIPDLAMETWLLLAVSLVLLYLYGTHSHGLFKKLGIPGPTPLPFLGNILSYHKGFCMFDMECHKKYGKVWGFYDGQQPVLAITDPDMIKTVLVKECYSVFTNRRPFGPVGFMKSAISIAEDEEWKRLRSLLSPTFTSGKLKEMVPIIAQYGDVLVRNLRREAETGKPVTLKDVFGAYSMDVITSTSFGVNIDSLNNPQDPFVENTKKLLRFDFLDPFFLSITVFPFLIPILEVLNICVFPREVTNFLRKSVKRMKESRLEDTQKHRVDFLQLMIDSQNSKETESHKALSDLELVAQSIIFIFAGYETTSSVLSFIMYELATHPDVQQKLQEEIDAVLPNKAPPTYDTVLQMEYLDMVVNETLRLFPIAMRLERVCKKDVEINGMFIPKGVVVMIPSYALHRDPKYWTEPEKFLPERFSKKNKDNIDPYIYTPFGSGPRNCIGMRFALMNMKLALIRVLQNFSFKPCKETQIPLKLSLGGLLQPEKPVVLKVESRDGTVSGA
A short description of assay [13]: Luminescence-based dose response cell-based high throughput screening assay for cytotoxic compounds using the IEC-6 intestinal epithelial cell line. [Related pubchem assays: 1858 (Summary AID.), 1825 (Counterscreen.), 1907 (Confirmation screen.)]. In kind it is functional.
Assay [14] in a line: HEK-293T cell viability reduction – luminescence, B-cell screen hits, cytotoxicity control for BCR NF-kB inhibitor project, dose response (AID 489021).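 Note: HEK-293T cells carrying an NF-kB luciferase reporter; cells exposed to compound for about 14 hours before viability readout.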 The format is functional, cell-based.
Another assay concerns the target Cytochrome P450 2C9 (Homo sapiens, UniProt P11712).
A short description of assay [15]: viability of uninfected HEp-2 cells – cell-based, HTS, cytotoxicity control for RSV inhibitor project, dose response (AID 2410). The format is functional. To be noted: human respiratory syncytial virus.
A further assay has as its target T5, NADPH oxidase 1 (Homo sapiens, UniProt Q9Y5S8).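 Note: Cell-based assay with luminescence read-out, IC50 derived from inhibitor dose-response curves; intracellular ROS from endogenous NOX1 in intact HT29 colon cancer cells; potency of inhibitors that lower the ROS luminescence signal.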
T5 sequence (Q9Y5S8 whole entry): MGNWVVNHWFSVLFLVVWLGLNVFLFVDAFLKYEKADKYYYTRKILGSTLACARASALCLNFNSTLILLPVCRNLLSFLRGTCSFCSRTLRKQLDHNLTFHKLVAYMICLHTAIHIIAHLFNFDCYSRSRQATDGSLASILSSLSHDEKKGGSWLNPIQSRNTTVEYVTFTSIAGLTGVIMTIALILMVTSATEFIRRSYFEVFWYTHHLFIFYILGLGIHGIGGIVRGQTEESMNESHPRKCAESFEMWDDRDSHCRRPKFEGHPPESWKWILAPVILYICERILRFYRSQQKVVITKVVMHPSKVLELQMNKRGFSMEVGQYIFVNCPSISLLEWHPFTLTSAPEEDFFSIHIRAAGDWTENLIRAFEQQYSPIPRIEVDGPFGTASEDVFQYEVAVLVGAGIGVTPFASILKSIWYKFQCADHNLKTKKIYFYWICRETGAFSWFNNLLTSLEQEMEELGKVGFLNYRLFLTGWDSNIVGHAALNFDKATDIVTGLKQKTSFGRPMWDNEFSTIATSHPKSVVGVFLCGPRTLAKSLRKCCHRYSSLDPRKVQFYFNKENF
The format is functional, cell-based.

Assay [16] in a line: A Cell Based Secondary Assay To Explore Cytotoxicity of Compounds that Sensitize Mycobacterium Tuberculosis to Beta-Lactam Antibiotics. In kind it is functional.

Sequence of Lytic switch protein BZLF1 (P03206 whole entry): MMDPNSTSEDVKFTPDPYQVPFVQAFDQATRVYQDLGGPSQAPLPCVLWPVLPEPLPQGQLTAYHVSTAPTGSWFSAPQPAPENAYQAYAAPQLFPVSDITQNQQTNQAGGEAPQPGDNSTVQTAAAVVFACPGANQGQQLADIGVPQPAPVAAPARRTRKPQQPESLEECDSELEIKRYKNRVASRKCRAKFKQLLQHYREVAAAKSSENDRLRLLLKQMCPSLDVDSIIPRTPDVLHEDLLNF
Sequence of Epstein-Barr nuclear antigen 1 (P03211 whole entry): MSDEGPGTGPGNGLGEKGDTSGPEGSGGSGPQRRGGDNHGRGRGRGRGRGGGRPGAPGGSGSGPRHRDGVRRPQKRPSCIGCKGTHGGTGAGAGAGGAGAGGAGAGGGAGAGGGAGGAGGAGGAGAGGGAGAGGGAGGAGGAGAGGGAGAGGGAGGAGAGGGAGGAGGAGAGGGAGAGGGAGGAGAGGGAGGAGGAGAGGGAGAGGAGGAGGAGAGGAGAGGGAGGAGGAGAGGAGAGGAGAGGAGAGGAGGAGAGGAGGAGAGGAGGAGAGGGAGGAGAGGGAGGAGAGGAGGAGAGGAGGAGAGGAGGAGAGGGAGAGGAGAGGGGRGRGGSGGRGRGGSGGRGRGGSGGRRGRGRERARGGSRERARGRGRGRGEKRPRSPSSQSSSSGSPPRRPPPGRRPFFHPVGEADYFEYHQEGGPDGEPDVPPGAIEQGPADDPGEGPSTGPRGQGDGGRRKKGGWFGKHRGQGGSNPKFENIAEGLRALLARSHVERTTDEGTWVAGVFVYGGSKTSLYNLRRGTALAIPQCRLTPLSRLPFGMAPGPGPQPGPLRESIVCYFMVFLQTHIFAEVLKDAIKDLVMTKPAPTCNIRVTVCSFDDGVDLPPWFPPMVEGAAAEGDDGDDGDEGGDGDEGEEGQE
Sequence of Cytochrome P450 2C9 (P11712 whole entry): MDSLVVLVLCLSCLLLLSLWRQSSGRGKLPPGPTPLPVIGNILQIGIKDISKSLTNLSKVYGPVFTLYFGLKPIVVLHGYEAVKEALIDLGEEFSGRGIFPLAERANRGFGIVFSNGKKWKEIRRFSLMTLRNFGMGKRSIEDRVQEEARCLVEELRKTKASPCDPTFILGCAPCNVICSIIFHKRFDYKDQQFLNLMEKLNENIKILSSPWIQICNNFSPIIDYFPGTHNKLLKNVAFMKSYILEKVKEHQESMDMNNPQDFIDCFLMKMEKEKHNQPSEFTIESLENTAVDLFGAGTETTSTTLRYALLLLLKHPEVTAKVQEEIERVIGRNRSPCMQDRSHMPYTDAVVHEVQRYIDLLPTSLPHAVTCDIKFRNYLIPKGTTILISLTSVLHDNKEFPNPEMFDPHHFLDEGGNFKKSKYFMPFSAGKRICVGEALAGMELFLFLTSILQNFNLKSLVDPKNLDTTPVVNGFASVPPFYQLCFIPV

With `O=P(CCCCCCCCCP(=O)(c1ccccc1)c1ccccc1)(c1ccccc1)c1ccccc1`, the IC50 in assay [1] is 1.65 µM (active); in [2], 12 µM (not active); in [4], 10.4 µM (not active). Further, the EC50 in [3] is 1.29 µM (active); in assay [5], > 60 µM (not active).

With `O=C1c2ccccc2S(=O)(=O)N1Cc1nc2ccccc2s1`, the concentration giving a half-maximal response (EC50) in the assay on HT-1080 is > 50 µM (not active); in assay [6], 7.48 µM (active); in [7], 4.21 µM (active); in assay [8], 7.63 µM (active); in assay [10], 7.02 µM (active). In addition, the AC50 in assay [9] was 2.7 µM (active).

For `Cc1ccc2nc3c(O)n(Cc4ccco4)cnc-3c2c1`, the IC50 in assay [11] was > 148 µM (not active); in assay [12], > 111 µM (not active).

On to `C(=N\Nc1nc(Nc2ccccc2)nc(N2CCOCC2)n1)/c1c[nH]c2ccccc12`, for which the AC50 on Cytochrome P450 3A4 was 15.8 µM (inconclusive); on Cytochrome P450 2C9, 17.8 µM (inconclusive). For the same molecule, the IC50 is 244 nM (active) in assay [13] and 28.5 µM (inactive) in assay [14]. Also, the EC50 in assay [3] was < 0.1 µM (active); in the assay “cells”, 18 nM (active); in [5] it was 0.536 µM (active). Besides, the CC50 in assay [15] was 28.8 µM (active).

As for `N#Cc1ccccc1OCC(=O)Nc1c(C(=O)C2CC2)oc2ccccc12`, the results for the IC50 in assay [11] and in assay [12] were 11 µM (not active) and > 111 µM (not active), respectively.

As to `COc1ccc2c(c1)Sc1ccc(Cl)cc1N2`, the IC50 at NADPH oxidase 1 was 0.177 µM (active).

For the molecule `CC(C)CCSc1nc(N2CCOCC2)c2c(c1C#N)CC(C)(C)OC2`, the CC50 in [16] is > 40 µM (active). The EC50 in [6] is 16.4 µM (active); in [7] it was 31.3 µM (active); in assay [3], 1.3 µM (active); in assay [10], > 120 µM (not active); in assay [5], > 60 µM (not active).

Consider `C=C(NNc1c(Cl)c(Cl)nc(C(=O)O)c1Cl)c1ccc(N2CCOCC2)cc1`, for which the IC50 against NADPH oxidase 1 is > 17 µM (not active).
